Experiments:
PARP1 GST = PARP1 GST (Homo sapiens (Human), UniProt P09874); experiment: TR-FRET binding assay, PARP1; details: Probe 2, 2 hours incubation
Protocol: (§1) TR-FRET assays were used to measure the binding of compounds to TIPARP and PARP1, and to characterize biochemical selectivity. Compound stock solutions (10 mM) were serially diluted in 3-fold increments in dimethyl sulfoxide (DMSO). Diluted compounds were dispensed (30 nL) into white ProxiPlate-384-well plates (PerkinElmer, Waltham, MA, USA) using an ECHO® 550 acoustic Labcyte dispenser (Beckman-Coulter Life Sciences, Indianapolis, IN, USA) to achieve a final starting concentration of 30 μM to 0.5 nM in the assay. This was followed by addition of 5 μL of 2× protein/probe mix (Table 2) made in assay buffer (Tris-HCl 50 mM pH 8.0; 5 mM MgCl2; 5 μM ZnCl2; 1 mM DTT (dithiothreitol); 0.15% BSA (bovine serum albumin) (w/v); and 0.01% TritonX-100 (w/v)) at final concentrations listed in Table 2. Subsequently, 5 μL of 2× antibody (Tb-labeled anti-GST antibody, Thermo Fisher Scientific, Waltham, MA, USA) in HEPES buffered saline was added to each well at a final concentration of 1 nM. The samples were then incubated for 2 hours under ambient conditions. Fluorescence was measured and TR-FR ET ratios were determined on an EnVision multimode plate reader (PerkinElmer) using a 520 nanometer (nm) excitation wavelength and collecting fluorescence emission at 495 nm.

TIPARP GST-(TEV) = TIPARP GST-(TEV) (Homo sapiens (Human), UniProt Q7Z3E1); experiment: TR-FRET binding assay, TIPARP; details: for IC50: TR-FRET, Probe 1, 2 hours incubation; for PARP1/TIPARP IC50 Ratio: ratio of PARP1 GST IC50 to TIPARP GST-(TEV) IC50
Description: as §1, with “The full-length cDNA encoding the human TIPARP (NP_001171647.1, UniProtKB-Q7Z3E1) of 657 amino acids was the template to generate the expression construct. […] The TIPARP fusion protein includes GST, glutathione S-transferase, a 26 kDa protein whose DNA sequence is frequently integrated into expression vectors for production of recombinant proteins. A […], was cloned into vector pFastBacTM 1 (Thermo Fisher Scientific) with an N-terminal GST tag followed by a TEV protease site to produce the TIPARP fusion protein, TIPARP GST-(TEV). TR-FRET” for “TR-FRET”, “nm. […] [table]” for “nm.”

DLD-1 BRCA2 (−/−) cells = experiment: CellTiter-Glo DLD-1 BRCA2 (−/−) cell assay for PARP1/2 inhibition; assay type: cell-based; details: Homo sapiens, 144 h, 6 days, read-out: DLD-1 BRCA2 (−/−) CTG EC50
Description: (§2) The DLD-1 BRCA2 (−/−) CellTiter-Glo® assay measured the synthetic lethality of PARP1/2 inhibitors and was used as a surrogate to allow measurement of activity of both PARP1 and PARP2 in cells. If PARP1 and PARP2 are inhibited and are trapped onto chromatin during DNA replication, there is replication fork stalling and accumulation of double strand breaks. In BR CA wild-type cells, the resulting double strand DNA breaks are repaired via homologous recombination. In cells with mutation of BRCA1 or BRCA2, homologous recombination repair of DNA double strand breaks is defective, and cell death occurs after PARP1/2 inhibitor treatment (Lord C J, Ashworth A. PARP inhibitors: synthetic lethality in the clinic. Science. 2017 Mar. 17; 355(6330):1152-1158). Testing compounds in viability assays with the DLD-1-BR CA 2 (−/−) and DLD-1 parent cell enabled assessment on PARP1/2-dependent (cytotoxicity in the BRCA2 (−/−) cells only) vs. non-selective cytotoxicity in both cell lines.
(§3) Compound stock solutions (10 mM) were serially diluted in 3-fold increments in dimethyl sulfoxide (DMSO). Sample aliquots (120 nL) were dispensed into Corning® 384-well Flat Clear Bottom White Polystyrene TC-treated Microplates (Corning Life Sciences, Corning, NY, USA) using an ECHO® 550 acoustic Labcyte dispenser (Beckman-Coulter Life Sciences, Indianapolis, IN, USA) to achieve concentrations between 30 μM and 0.5 nM in the assay. In the assay, 40 μL of 500 DLD-1 parent cells (HORIZON® Therapeutics, Deerfield, IL, USA) or 40 μL of 1200 DLD-1-BRCA2 (−/−) cells (HORIZON Therapeutics) in complete growth medium containing RPMI 1640 growth medium (ThermoFisher Scientific, Waltham, MA, USA) supplemented with 20 mg/L L-glutamate, 25 mM HEPES (4-(2-hydroxyethyl)-1-piperazineethanesulfonic acid), 10% (v/v) heat inactivated FBS (fetal bovine serum), and 1% (w/v) Penicillin-Streptomycin were added.
(§4) Duplicate cell plates with 40 μL cells/well along with various concentrations of compounds were kept in Nunc™ Square BioAssay Dishes (Thermo Fisher Scientific) at 98% relative humidity in a 5% CO2 incubator at 37° C. for 6 days. On day 7, plates were moved to ambient lab conditions for 10 minutes until the temperature equilibrated. Following equilibration, CellTiter-Glo® Luminescent Cell Viability Assay reagent (Promega™, Madison, WI, USA) was added (15 μL) to each well of the plates. After a 20 minutes incubation, luminescence was detected using a ViewLux™ microplate imager (PerkinElmer, Waltham, MA, USA). Data analysis was performed using GraphPad Prism (Dotmatics, Boston, MA, USA).

DLD-1 parent cells = experiment: CellTiter-Glo DLD-1 parent cell assay; assay type: cell-based; details: Homo sapiens, 144 h, 6 days, read-out: DLD-1 CTG EC50
Description: as §2, §3, §4

NCI-H1373 cells = experiment: NCI-H1373 CellTiter-Glo cell assay for TIPARP inhibition; assay type: cell-based, human; details: Homo sapiens, NCI-H1373, 144 h; 6 days, 100 nM 10-Cl-BBQ in medium; read-out: NCI-H1373 CTG EC50
Protocol: The NCI-H1373 CellTiter-Glo® assay was used to determine cell numbers after TIPARP inhibition-induced cell cycle arrest, and enabled screening of compounds for cellular TIPARP inhibition potency.
Compound stock solutions (10 mM) were serially diluted in 3-fold increments in dimethyl sulfoxide. Sample aliquots (120 nL) were dispensed into Corning® 384-well Flat Clear Bottom White Polystyrene TC-treated Microplates (Corning Life Sciences, Corning, NY, USA) using an ECHO® 550 acoustic Labcyte dispenser (Beckman-Coulter Life Sciences, Indianapolis, IN, USA) to achieve final concentrations between 30 μM and 0.5 nM in the assay. This was followed by the addition of 40 μL of 1000 NCI-H1373 cells (ATCC®, Manassas, VA, USA) in complete growth medium RPMI 1640 growth medium (Thermo Fisher Scientific, Waltham, MA, USA) supplemented with 20 mg/L L-glutamate, 25 mM HEPES (4-(2-hydroxyethyl)-1-piperazineethanesulfonic acid), 10% (v/v) heat inactivated FBS (fetal bovine serum), 1% (w/v) penicillin-streptomycin, and 100 nM 10-Cl-BBQ (10-chloro-7H-benzimidazo[2,1-a]benz[de]isoquinolin-7-one, (Tocris, Minneapolis, MN, USA). Duplicate cell plates with 40 μL cells/well along with various concentrations of compounds were kept in Nunc™ Square BioAssay Dishes (Thermo Fisher Scientific) at 98% relative humidity in a 5% C02 incubator at 37° C. for 6 days. On day 7, plates were moved to ambient lab conditions for 10 minutes until the temperature equilibrated. Following equilibration, CellTiter-Glo® Luminescent Cell Viability Assay reagent (Promega™, Madison, WI, USA) was added (15 μL) to each well of the plates. After a 20 minutes incubation, luminescence was detected using a ViewLux™ microplate imager (PerkinElmer, Waltham, MA, USA). Data analysis was performed using GraphPad Prism (Dotmatics, Boston, MA, USA).

Chain of PARP1 GST (P09874 whole entry): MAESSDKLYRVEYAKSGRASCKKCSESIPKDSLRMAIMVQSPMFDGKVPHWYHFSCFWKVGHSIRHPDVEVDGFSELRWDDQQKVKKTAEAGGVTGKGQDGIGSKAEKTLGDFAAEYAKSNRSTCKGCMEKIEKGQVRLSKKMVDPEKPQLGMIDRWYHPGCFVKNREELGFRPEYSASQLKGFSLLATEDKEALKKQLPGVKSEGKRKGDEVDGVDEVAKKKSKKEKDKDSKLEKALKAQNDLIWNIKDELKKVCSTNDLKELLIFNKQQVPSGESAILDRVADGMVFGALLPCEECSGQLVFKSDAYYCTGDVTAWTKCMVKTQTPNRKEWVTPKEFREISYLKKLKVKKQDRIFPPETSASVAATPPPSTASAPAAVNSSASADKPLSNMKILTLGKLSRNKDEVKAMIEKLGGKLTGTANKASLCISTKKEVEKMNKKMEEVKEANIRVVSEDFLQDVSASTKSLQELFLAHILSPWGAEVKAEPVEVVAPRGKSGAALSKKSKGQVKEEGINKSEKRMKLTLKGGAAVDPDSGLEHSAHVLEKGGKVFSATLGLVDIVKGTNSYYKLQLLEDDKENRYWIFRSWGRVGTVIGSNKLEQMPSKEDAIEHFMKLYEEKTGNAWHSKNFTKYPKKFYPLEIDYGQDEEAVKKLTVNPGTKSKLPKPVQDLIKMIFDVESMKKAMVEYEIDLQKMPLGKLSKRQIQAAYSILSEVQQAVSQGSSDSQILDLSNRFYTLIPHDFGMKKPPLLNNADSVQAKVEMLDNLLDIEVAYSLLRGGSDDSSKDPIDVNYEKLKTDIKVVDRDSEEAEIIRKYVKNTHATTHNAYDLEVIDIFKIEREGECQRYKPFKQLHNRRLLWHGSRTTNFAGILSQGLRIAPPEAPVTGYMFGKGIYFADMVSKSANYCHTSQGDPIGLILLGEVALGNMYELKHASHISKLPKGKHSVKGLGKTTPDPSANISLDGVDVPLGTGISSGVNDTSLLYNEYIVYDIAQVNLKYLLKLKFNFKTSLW
Chain of TIPARP GST-(TEV) (Q7Z3E1 441-657): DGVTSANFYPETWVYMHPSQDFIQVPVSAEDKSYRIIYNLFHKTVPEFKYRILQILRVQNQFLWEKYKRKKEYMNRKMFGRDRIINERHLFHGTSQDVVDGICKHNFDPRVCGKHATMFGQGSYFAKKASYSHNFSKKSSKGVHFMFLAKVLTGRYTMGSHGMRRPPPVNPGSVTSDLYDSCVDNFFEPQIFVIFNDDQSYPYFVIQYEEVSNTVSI

With `C[C@@H]1CN(c2ncc(C(F)(F)F)cn2)C[C@H](C)N1C(=O)[C@H]1C[C@@H](c2c[nH]c(=O)c(C(F)(F)F)c2)C1` [Example 2, 5-[(1s,3s)-3-{(2R,6S)-2,6-dimethyl-4-[5-(trifluoromethyl)pyrimidin-2-yl]piperazine-1-carbonyl}cyclobutyl]-3-(trifluoromethyl)pyridin-2(1H)-one] the IC50 (PARP1 GST) was 5020 nM, the IC50 (TIPARP GST-(TEV)) was 3.75 nM and the “PARP1/TIPARP IC50 Ratio” value (TIPARP GST-(TEV)) was 1340. For the same compound, the EC50 (DLD-1 BRCA2 (−/−) cells) was 16500 nM, the EC50 (DLD-1 parent cells) was 22100 nM and the EC50 (NCI-H1373 cells) was 32.2 nM.
With `C[C@@H]1CN(C(=O)[C@H]2C[C@@H](c3c[nH]c(=O)c(C(F)(F)F)c3)C2)CCN1c1ncc(C(F)(F)F)cn1` [Example 3, 5-[(1S,3s)-3-{(3R)-3-methyl-4-[5-(trifluoromethyl)pyrimidin-2-yl]piperazine-1-carbonyl}cyclobutyl]-3-(trifluoromethyl)pyridin-2(1H)-one] the IC50 (PARP1 GST) was 504 nM, the IC50 (TIPARP GST-(TEV)) was 4.74 nM and the “PARP1/TIPARP IC50 Ratio” value (TIPARP GST-(TEV)) was 106. For the same compound, the EC50 (DLD-1 BRCA2 (−/−) cells) was 5030 nM, the EC50 (DLD-1 parent cells) was > 30000 nM and the EC50 (NCI-H1373 cells) was 9.65 nM.
In the case of `C[C@@H]1CN(C(=O)[C@H]2C[C@@H](c3c[nH]c(=O)c(C(F)(F)F)c3)C2)C[C@H](C)N1c1ncc(C(F)(F)F)cn1` [Example 4, 5-[(1s,3s)-3-{(3R,5S)-3,5-dimethyl-4-[5-(trifluoromethyl)pyrimidin-2-yl]piperazine-1-carbonyl}cyclobutyl]-3-(trifluoromethyl)pyridin-2(1H)-one], the IC50 (PARP1 GST) is reported as 3120 nM, the IC50 (TIPARP GST-(TEV)) is reported as 5.7 nM and the “PARP1/TIPARP IC50 Ratio” value (TIPARP GST-(TEV)) is reported as 547. It also gave an EC50 (DLD-1 BRCA2 (−/−) cells) of 7170 nM, an EC50 (DLD-1 parent cells) of 23900 nM and an EC50 (NCI-H1373 cells) of 11.1 nM.
In the case of `C[C@@H]1CN(C(=O)[C@H]2C[C@@H](c3c[nH]c(=O)c(C(F)(F)F)c3)C2)C[C@H](C)N1c1ncc(C(C)(C)O)cn1` [Example 5, 5-[(1s,3s)-3-{(3R,5S)-4-[5-(2-hydroxypropan-2-yl)pyrimidin-2-yl]-3,5-dimethylpiperazine-1-carbonyl}cyclobutyl]-3-(trifluoromethyl)pyridin-2(1H)-one], the IC50 (PARP1 GST) is reported as 2240 nM, the IC50 (TIPARP GST-(TEV)) is reported as 2.3 nM and the “PARP1/TIPARP IC50 Ratio” value (TIPARP GST-(TEV)) is reported as 974. The EC50 (DLD-1 BRCA2 (−/−) cells) was 20500 nM, the EC50 (DLD-1 parent cells) was > 30000 nM and the EC50 (NCI-H1373 cells) was 34.4 nM.
With `C[C@H]1CN(c2ncc(C(F)(F)F)cn2)CCN1C(=O)[C@H]1C[C@@H](c2c[nH]c(=O)c(C(F)(F)F)c2)C1` [Example 6, 5-[(1R,3s)-3-{(2S)-2-methyl-4-[5-(trifluoromethyl)pyrimidin-2-yl]piperazine-1-carbonyl}cyclobutyl]-3-(trifluoromethyl)pyridin-2(1H)-one] the IC50 (PARP1 GST) was 283 nM, the IC50 (TIPARP GST-(TEV)) was 3.43 nM and the “PARP1/TIPARP IC50 Ratio” value (TIPARP GST-(TEV)) was 82.5. For the same compound, the EC50 (DLD-1 BRCA2 (−/−) cells) was 1130 nM, the EC50 (DLD-1 parent cells) was 14400 nM and the EC50 (NCI-H1373 cells) was 45.4 nM.
`C[C@@H]1CN(C(=O)[C@H]2C[C@@H](c3c[nH]c(=O)c(C(F)(F)F)c3)C2)CCN1c1ncc(C(C)(C)O)cn1` [Example 7, 5-[(1S,3s)-3-{(3R)-4-[5-(2-hydroxypropan-2-yl)pyrimidin-2-yl]-3-methylpiperazine-1-carbonyl}cyclobutyl]-3-(trifluoromethyl)pyridin-2(1H)-one] was tested, and the IC50 (PARP1 GST) was 1580 nM, the IC50 (TIPARP GST-(TEV)) was 3.79 nM and the “PARP1/TIPARP IC50 Ratio” value (TIPARP GST-(TEV)) was 417. For the same compound, the EC50 (DLD-1 BRCA2 (−/−) cells) was 17200 nM, the EC50 (DLD-1 parent cells) was > 30000 nM and the EC50 (NCI-H1373 cells) was 71.7 nM.
`C[C@H]1CN(C(=O)[C@H]2C[C@@H](c3c[nH]c(=O)c(C(F)(F)F)c3)C2)CCN1c1ncc(C(F)(F)F)cn1` [Example 8, 5-[(1R,3s)-3-{(3S)-3-methyl-4-[5-(trifluoromethyl)pyrimidin-2-yl]piperazine-1-carbonyl}cyclobutyl]-3-(trifluoromethyl)pyridin-2(1H)-one] was tested, and the IC50 (PARP1 GST) was 1200 nM, the IC50 (TIPARP GST-(TEV)) was 8.79 nM and the “PARP1/TIPARP IC50 Ratio” value (TIPARP GST-(TEV)) was 137. The EC50 (DLD-1 BRCA2 (−/−) cells) was 5730 nM, the EC50 (DLD-1 parent cells) was > 30000 nM and the EC50 (NCI-H1373 cells) was 55.9 nM.
`C[C@@H]1CN(c2ncc(C(C)(C)O)cn2)CCN1C(=O)[C@H]1C[C@@H](c2c[nH]c(=O)c(C(F)(F)F)c2)C1` [Example 9, 5-[(1S,3s)-3-{(2R)-4-[5-(2-hydroxypropan-2-yl)pyrimidin-2-yl]-2-methylpiperazine-1-carbonyl}cyclobutyl]-3-(trifluoromethyl)pyridin-2(1H)-one] was tested, and the IC50 (PARP1 GST) was 4360 nM, the IC50 (TIPARP GST-(TEV)) was 4.32 nM and the “PARP1/TIPARP IC50 Ratio” value (TIPARP GST-(TEV)) was 1010. The EC50 (DLD-1 BRCA2 (−/−) cells) was > 30000 nM, the EC50 (DLD-1 parent cells) was > 30000 nM and the EC50 (NCI-H1373 cells) was 67.7 nM.
